Assay results published in ChEMBL document CHEMBL3885881, “DrugMatrix”.

Organism: Rattus norvegicus
Assay: DrugMatrix - Regimen: Daily Repeat
Type: toxicity, organism-based, Sprague-Dawley
Parameters: regimen Daily Repeat, gender Male, age 6-8 weeks
Details: in vivo, po, route oral GAVAGE, […]; for ABSOLUTE BASOPHIL / ABSOLUTE EOSINOPHIL / ABSOLUTE LYMPHOCYTE / ABSOLUTE MONOCYTE / ABSOLUTE SEGMENTED NEUTROPHIL / BASOPHIL / EOSINOPHIL / ERYTHROCYTE COUNT / HEMATOCRIT / HEMOGLOBIN / LEUKOCYTE COUNT / LYMPHOCYTE / MEAN CORPUSCULAR HEMOGLOBIN / MEAN CORPUSCULAR HEMOGLOBIN CONCENTRATION / MEAN CORPUSCULAR VOLUME / MONOCYTE / NEUTROPHIL / NUCLEATED RED BLOOD CELLS / PLATELET COUNT: tissue Blood; for ALANINE AMINOTRANSFERASE / ALBUMIN / ALKALINE PHOSPHATASE / ASPARTATE AMINOTRANSFERASE / BLOOD UREA NITROGEN / CARBON DIOXIDE / CHLORIDE / CHOLESTEROL / CREATINE PHOSPHOKINASE / CREATININE / GLUCOSE / LACTATE DEHYDROGENASE / LIPASE / PHOSPHORUS / POTASSIUM / SODIUM / TOTAL BILIRUBIN / TOTAL PROTEIN / URIC ACID: tissue Plasma
[1] = 50 mg/kg, 120 h, dose level Low, time 5 day
[2] = 175 mg/kg, 72 h, dose level High, time 3 day
[3] = 175 mg/kg, 120 h, dose level High, time 5 day

Oc1ncnc2[nH]ncc12 [ALLOPURINOL]
ABSOLUTE BASOPHIL [1]: 0 CELLS/uL | ABSOLUTE EOSINOPHIL [1]: 49 CELLS/uL | ABSOLUTE LYMPHOCYTE [1]: 17802 CELLS/uL | ABSOLUTE MONOCYTE [1]: 49 CELLS/uL | ABSOLUTE SEGMENTED NEUTROPHIL [1]: 1133.33 CELLS/uL | BASOPHIL [1]: 0% | EOSINOPHIL [1]: 0.33% | ERYTHROCYTE COUNT [1]: 5.63 x10E6/uL | HEMATOCRIT [1]: 35.03% | HEMOGLOBIN [1]: 13.73 G/DL | LEUKOCYTE COUNT [1]: 19.03 x10E3/uL | LYMPHOCYTE [1]: 93% | MEAN CORPUSCULAR HEMOGLOBIN [1]: 24.47 pg | MEAN CORPUSCULAR HEMOGLOBIN CONCENTRATION [1]: 39.27 G/DL | MEAN CORPUSCULAR VOLUME [1]: 62.33 fL | MONOCYTE [1]: 0.33% | NEUTROPHIL [1]: 6.33% | NUCLEATED RED BLOOD CELLS [1]: 0 /100WBC | PLATELET COUNT [1]: 1236.33 x10E3/uL | ALANINE AMINOTRANSFERASE [1]: 56.33 u/L | ALBUMIN [1]: 3.97 G/DL | ALKALINE PHOSPHATASE [1]: 308 u/L | ASPARTATE AMINOTRANSFERASE [1]: 104 u/L | BLOOD UREA NITROGEN [1]: 20 mg/dL | CARBON DIOXIDE [1]: 27 mmol/L | CHLORIDE [1]: 100 MEQ/L | CHOLESTEROL [1]: 65.33 mg/dL | CREATINE PHOSPHOKINASE [1]: 626 u/L | CREATININE [1]: 0.41 mg/dL | GLUCOSE [1]: 169.33 mg/dL | LACTATE DEHYDROGENASE [1]: 263.33 u/L | LIPASE [1]: 10 u/L | PHOSPHORUS [1]: 9.7 mg/dL | POTASSIUM [1]: 5.66 MEQ/L | SODIUM [1]: 141.17 MEQ/L | TOTAL BILIRUBIN [1]: 0.2 mg/dL | TOTAL PROTEIN [1]: 5.6 G/DL | URIC ACID [1]: 0.83 mg/dL | ABSOLUTE BASOPHIL [2]: 0 CELLS/uL | ABSOLUTE EOSINOPHIL [2]: 0 CELLS/uL | ABSOLUTE LYMPHOCYTE [2]: 8294 CELLS/uL | ABSOLUTE MONOCYTE [2]: 350.5 CELLS/uL | ABSOLUTE SEGMENTED NEUTROPHIL [2]: 4205.5 CELLS/uL | BASOPHIL [2]: 0% | EOSINOPHIL [2]: 0% | ERYTHROCYTE COUNT [2]: 5.27 x10E6/uL | HEMATOCRIT [2]: 32.2% | HEMOGLOBIN [2]: 12.95 G/DL | LEUKOCYTE COUNT [2]: 12.85 x10E3/uL | LYMPHOCYTE [2]: 64% | MEAN CORPUSCULAR HEMOGLOBIN [2]: 24.55 pg | MEAN CORPUSCULAR HEMOGLOBIN CONCENTRATION [2]: 40.3 G/DL | MEAN CORPUSCULAR VOLUME [2]: 61.1 fL | MONOCYTE [2]: 3% | NEUTROPHIL [2]: 33% | NUCLEATED RED BLOOD CELLS [2]: 0 /100WBC | PLATELET COUNT [2]: 1127 x10E3/uL | ALANINE AMINOTRANSFERASE [2]: 101 u/L | ALBUMIN [2]: 3.9 G/DL | ALKALINE PHOSPHATASE [2]: 397.5 u/L | ASPARTATE AMINOTRANSFERASE [2]: 153.5 u/L | BLOOD UREA NITROGEN [2]: 113.5 mg/dL | CARBON DIOXIDE [2]: 24.5 mmol/L | CHLORIDE [2]: 93 MEQ/L | CHOLESTEROL [2]: 99 mg/dL | CREATINE PHOSPHOKINASE [2]: 283.5 u/L | CREATININE [2]: 3.31 mg/dL | GLUCOSE [2]: 154.5 mg/dL | LACTATE DEHYDROGENASE [2]: 217.5 u/L | LIPASE [2]: 12 u/L | PHOSPHORUS [2]: 16.65 mg/dL | POTASSIUM [2]: 6.46 MEQ/L | SODIUM [2]: 141.2 MEQ/L | TOTAL BILIRUBIN [2]: 0.35 mg/dL | TOTAL PROTEIN [2]: 6.55 G/DL | URIC ACID [2]: 0.2 mg/dL | ABSOLUTE BASOPHIL [3]: 0 CELLS/uL | ABSOLUTE EOSINOPHIL [3]: 81.33 CELLS/uL | ABSOLUTE LYMPHOCYTE [3]: 15570.33 CELLS/uL | ABSOLUTE MONOCYTE [3]: 599.67 CELLS/uL | ABSOLUTE SEGMENTED NEUTROPHIL [3]: 6148.67 CELLS/uL | BASOPHIL [3]: 0% | EOSINOPHIL [3]: 0.33% | ERYTHROCYTE COUNT [3]: 5.7 x10E6/uL | HEMATOCRIT [3]: 35.5% | HEMOGLOBIN [3]: 13.77 G/DL | LEUKOCYTE COUNT [3]: 22.4 x10E3/uL | LYMPHOCYTE [3]: 69.33% | MEAN CORPUSCULAR HEMOGLOBIN [3]: 24.17 pg | MEAN CORPUSCULAR HEMOGLOBIN CONCENTRATION [3]: 38.8 G/DL | MEAN CORPUSCULAR VOLUME [3]: 62.27 fL | MONOCYTE [3]: 2.67% | NEUTROPHIL [3]: 27.67% | NUCLEATED RED BLOOD CELLS [3]: 0 /100WBC | PLATELET COUNT [3]: 1373 x10E3/uL | ALANINE AMINOTRANSFERASE [3]: 78.67 u/L | ALBUMIN [3]: 3.73 G/DL | ALKALINE PHOSPHATASE [3]: 409 u/L | ASPARTATE AMINOTRANSFERASE [3]: 102 u/L | BLOOD UREA NITROGEN [3]: 46.33 mg/dL | CARBON DIOXIDE [3]: 26.33 mmol/L | CHLORIDE [3]: 105.33 MEQ/L | CHOLESTEROL [3]: 83.67 mg/dL | CREATINE PHOSPHOKINASE [3]: 242.33 u/L | CREATININE [3]: 1.36 mg/dL | GLUCOSE [3]: 145 mg/dL | LACTATE DEHYDROGENASE [3]: 182.33 u/L | LIPASE [3]: 10.33 u/L | PHOSPHORUS [3]: 7.7 mg/dL | POTASSIUM [3]: 6.87 MEQ/L | SODIUM [3]: 149 MEQ/L | TOTAL BILIRUBIN [3]: 0.2 mg/dL | TOTAL PROTEIN [3]: 5.87 G/DL | URIC ACID [3]: 0.2 mg/dL
